Results reported in patent US6500853B1, “Inhibitors of phospholipase enzymes” (Genetics Institute, LLC, priority 1998, dated 2002).
Like-named read-outs stand apart in the source and are kept apart here.

Target: T1, cPLA2 (Homo sapiens, UniProt P47712)
T1 sequence (P47712 1-749): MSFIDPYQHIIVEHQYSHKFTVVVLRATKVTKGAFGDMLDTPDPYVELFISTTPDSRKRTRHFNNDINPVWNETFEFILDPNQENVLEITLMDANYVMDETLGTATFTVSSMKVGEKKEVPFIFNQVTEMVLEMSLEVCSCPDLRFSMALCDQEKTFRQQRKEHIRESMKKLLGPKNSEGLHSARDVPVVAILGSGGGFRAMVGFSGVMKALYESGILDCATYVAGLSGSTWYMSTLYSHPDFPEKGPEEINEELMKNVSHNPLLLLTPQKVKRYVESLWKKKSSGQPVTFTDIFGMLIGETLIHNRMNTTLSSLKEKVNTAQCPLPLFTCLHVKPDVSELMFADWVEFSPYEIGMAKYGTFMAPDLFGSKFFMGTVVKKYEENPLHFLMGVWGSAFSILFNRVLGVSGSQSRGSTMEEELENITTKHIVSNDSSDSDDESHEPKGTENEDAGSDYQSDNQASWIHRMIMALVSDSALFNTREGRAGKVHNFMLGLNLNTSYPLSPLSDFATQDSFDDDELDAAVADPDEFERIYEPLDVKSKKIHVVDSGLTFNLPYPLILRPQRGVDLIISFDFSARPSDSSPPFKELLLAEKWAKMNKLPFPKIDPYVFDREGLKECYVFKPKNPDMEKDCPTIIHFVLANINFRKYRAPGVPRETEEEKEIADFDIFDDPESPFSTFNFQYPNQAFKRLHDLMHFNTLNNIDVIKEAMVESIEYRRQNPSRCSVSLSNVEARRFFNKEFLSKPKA
Assay: Coumarin Assay (cPLA2 inhibition)
Assay type: biochemical
Conditions: for inhibition at 12.5 µM: CONCENTRATION 12.5 micromolar
Protocol: Table I reports data for the compounds described in the examples above in cPLA2 inhibition assays (described below). In the data columns of Tables I and II, assay results are reported as a percent inhibition at the concentration specified.
7-hydroxycoumarinyl 6-heptenoate was used as a monomeric substrate for cPLA2 as reported previously (Huang, Z. et al., 1994, Nalytical Biochemistry 222, 110-115). Inhibitors were mixed with 200 μL assay buffer (80 mM Heped, pH 7.5, 1 mM EDTA) containing 60 μM 7-hydroxycoumarinyl 6-heptenoate. The reaction was initiated by adding 4 μg cPLA2 in 50 μL assay buffer. Hydrolysis of the 7-hydroxycounarimyl 6-heptenoate ester was monitored in a fluorometer by exciting at 360 nm and monitoring emission at 460 nm. Enzyme activity is proportional to the increase in emission at 460 nm per minute. In the presence of a cPLA2 inhibitor, the rate of increase is less. The percent inhibition for corresponding concentrations of compounds herein in this Coumarin assay are provided below in Table I.

Q: Which inhibition at 160 µM (CONCENTRATION 160 micromolar, read-out: PERCENT INHIBITION @) does the source give for `O=C(O)Cc1cn(CC2CC2)c2ccc(Br)cc12` [Example 77, 2-[5-bromo-1-(cyclopropylmethyl)-1H-indol-3-yl]acetic acid] here?
A: 50%

Q: And the inhibition at 180 µM (CONCENTRATION 180 micromolar, read-out: PERCENT INHIBITION @)?
A: 50%

Q: How did the inhibition at 12.5 µM (read-out: PERCENT INHIBITION @) turn out when `O=C(Nc1cccc(C(=O)O)c1)C(=O)c1cn(Cc2ccc(COc3cc(C(F)(F)F)cc(C(F)(F)F)c3)cc2)c2ccccc12` [Example 60, 3-({2-[1-(4-{[3,5-bis(trifluoromethyl)phenoxy]methyl}benzyl)-1H-indol-3yl]-2oxoacetyl}amino)benzoic acid] was run?
A: 50%

Q: For `O=C(Nc1cccc(C(=O)O)c1)C(=O)c1cn(Cc2ccc(Cc3ccccc3)cc2)c2ccc(OCc3ccccc3)cc12` [Example 71, 3-({2-[1-(4-benzylbenzyl)-5-(benzyloxy)-1H-indol-3-yl]-2-oxoacetyl}amino)benzoic acid], which inhibition at 1.5 µM (CONCENTRATION 1.5 micromolar, read-out: PERCENT INHIBITION @) is on record?
A: 50%

Q: What about the inhibition at 3.5 µM (CONCENTRATION 3.5 micromolar, read-out: PERCENT INHIBITION @) of the same compound?
A: 50%

Q: And the inhibition at 3.8 µM (CONCENTRATION 3.8 micromolar, read-out: PERCENT INHIBITION @)?
A: 50%

Q: And the inhibition at 6 µM (CONCENTRATION 6 micromolar, read-out: PERCENT INHIBITION @)?
A: 69%

Q: For `O=Cc1c(CCOc2ccc(C(=O)O)cc2)c2cc(Cl)ccc2n1C(c1ccccc1)c1ccccc1` [Example 150, 4-[2-(1-benzhydryl-5-chloro-2-formyl-1H-indol-3-yl)ethoxy]benzoic acid], which inhibition at 2.5 µM (Conc 2.5 uM, read-out: % Inhibition) is on record?
A: 50%

Q: What does the source list for `O=C(O)CCc1cn(CCCOc2cccc(Cc3ccccc3)c2)c2ccccc12` [Example 83, 3-{1-[3-(3-benzylphenoxy)propyl]-1H-indol-3-yl}propanoic acid]?
A: inhibition at 48 µM (CONCENTRATION 48 micromolar, read-out: PERCENT INHIBITION @): 50%; inhibition at 70 µM (CONCENTRATION 70 micromolar, read-out: PERCENT INHIBITION @): 50%

Q: What does the source list for `O=C(O)Cc1cn(CC2CC2)c2ccc(-c3cccc(C(F)(F)F)c3)cc12` [Example 79, 2-{1-(cyclopropylmethyl)-5-[3-(trifluoromethyl)phenyl]-1H-indol-3-yl}acetic acid]?
A: inhibition at 60 µM (CONCENTRATION 60 micromolar, read-out: PERCENT INHIBITION @): 50%; inhibition at 65 µM (CONCENTRATION 65 micromolar, read-out: PERCENT INHIBITION @): 50%

Q: For `COc1cc(C(=O)NS(=O)(=O)c2ccccc2C)ccc1Cc1cn(C(c2ccccc2)c2ccccc2)c2ccc(NC(=O)C3CCCC3)cc12` [Example 43, N-{1-benzhydryl-3-[2-methoxy-4-({[(2-methylphenyl)sulfonyl]amino}carbonyl)benzyl]-1H-indol-5-yl}cyclopentanecarboxamide], which inhibition at 12 µM (CONCENTRATION 12 micromolar, read-out: PERCENT INHIBITION @) is on record?
A: 50%

Q: What about the inhibition at 14 µM (CONCENTRATION 14 micromolar, read-out: PERCENT INHIBITION @) of the same compound?
A: 50%

Q: How did the inhibition at 3.3 µM (Conc 3.3 uM) turn out when `O=C(O)c1ccc(OCCc2c(CO)n(C(c3ccccc3)c3ccccc3)c3ccc(Cl)cc23)cc1` [Example 151, 4-{2-[1-benzhydryl-5-chloro-2-(hydroxymethyl)-1H-indol-3-yl]ethoxy}benzoic acid] was run?
A: 50%

Q: `Cc1c(CCOc2ccc(CCC(=O)O)cc2)c2cc(Cl)ccc2n1C(c1ccccc1)c1ccccc1` [Example 171, 3-{4-[2-(1-Benzhydryl-5-chloro-2-methyl-1H-indol-3-yl)ethoxy]phenyl}propanoic acid (10)] was tested. Which “% Inhibition” value (Conc 0.4 uM) did it give?
A: 50%

Q: How did the inhibition at 5.5 µM (CONCENTRATION 5.5 micromolar, read-out: PERCENT INHIBITION @) turn out when `O=C(O)C1CC1Cc1cn(C(c2ccccc2)c2ccccc2)c2cc(Cl)ccc12` (centres unmarked) [Example 126, 2-[(1-benzhydryl-6-chloro-1H-indol-3-yl)methyl]cyclopropanecarboxylic acid] was run?
A: 50%

Q: For `Cc1c(CCS(=O)(=O)c2ccc(C(=O)O)cc2)c2cc(Cl)c(Cl)cc2n1C(c1ccccc1)c1ccccc1` [Example 142], which “% Inhibition” value (Conc 1.4 uM) is on record?
A: 50%

Q: For `O=C(O)c1ccc(OCCc2c(COCc3ccc(F)cc3)n(C(c3ccccc3)c3ccccc3)c3ccc(Cl)cc23)cc1` [Example 161, 4-[2-(1-benzhydryl-5-chloro-2-{[(4-fluorobenzyl)oxy]methyl}-1H-indol-3-yl)ethoxy]benzoic acid], which inhibition at 1.8 µM (Conc 1.8 uM, read-out: % Inhibition) is on record?
A: 50%

Q: How did the inhibition at 3.5 µM (Conc 3.5 uM, read-out: % Inhibition) turn out when `O=C(O)c1ccc(OCCc2c(COC/C=C/c3ccccc3)n(C(c3ccccc3)c3ccccc3)c3ccc(Cl)cc23)cc1` [Example 164, 4-{2-[1-benzhydryl-5-chloro-2-({[(E)-3-phenyl-2-propenyl]oxy}methyl)-1H -indol-3-yl)ethoxy]benzoic acid] was run?
A: 50%

Q: Which inhibition at 0.5 µM (Conc 0.5 uM, read-out: % Inhibition) does the source give for `Cc1c(CCSc2ccc(CCC(=O)O)cc2)c2cc(Cl)ccc2n1C(c1ccccc1)c1ccccc1` [Example 170, 3-(4 {[2-(1-benzhydryl-5-chloro-2-methyl-1H-indol-3-yl)ethyl]sulfanyl}phenyl)propanoic acid] here?
A: 50%

Q: Which inhibition at 12 µM (Conc 12 uM, read-out: % Inhibition) does the source give for `COc1ccc2c(c1)c(CCS(=O)(=O)c1ccc(C(=O)O)cc1)c(C)n2C(c1ccccc1)c1ccccc1` [Example 144, 4-{[2-(1-benzhydryl-5-methoxy-2-methyl-1H-indol-3-yl)ethyl]sulfonyl}benzoic acid] here?
A: 50%

Q: With `N#Cc1ccc(COCc2c(CCOc3ccc(C(=O)O)cc3)c3cc(Cl)ccc3n2C(c2ccccc2)c2ccccc2)cc1` [Example 163, 4-[2-(1-benzhydryl-5-chloro-2{[(4-cynobenzyl)oxy]methyl}-1H-indol-3-yl)ethoxy]benzoic acid] as the compound, how does the “% Inhibition” value (Conc 1.25 uM) read?
A: 50%

Q: How did the inhibition at 2.5 µM (CONCENTRATION 2.5 micromolar, read-out: PERCENT INHIBITION @) turn out when `O=C(O)COc1ccc(Cc2cn(C(c3ccccc3)c3ccccc3)c3cc(Cl)ccc23)cc1` [Example 119, 2-{4-[(1-benzhydryl-6-chloro-1H-indol-3-yl)methyl]phenoxy}acetic acid] was run?
A: 50%

Q: For `Cc1c(CC[S+]([O-])c2ccc(C(=O)O)cc2)c2cc(Cl)ccc2n1C(c1ccccc1)c1ccccc1` (centres unmarked) [Example 148, 4-{[2-(1-benzhydryl-5-chloro-2-methyl-1H-indol-3-yl)ethyl]sulfinyl}benzoic acid], which inhibition at 2.8 µM (Conc 2.8 uM) is on record?
A: 50%

Q: Which inhibition at 0.4 µM (CONCENTRATION 0.4 micromolar, read-out: PERCENT INHIBITION @) does the source give for `COc1cc(C(=O)NCC(=O)O)ccc1Cc1cn(C(c2ccccc2)c2ccccc2)c2cc(Cl)ccc12` [Example 138, 2-({4-[(1-benzhydryl-6-chloro-1H-indol-3-yl)methyl]-3-methoxybenzoyl}amino)acetic acid] here?
A: 50%

Q: What does the source list for `COc1cc(C(=O)NS(=O)(=O)c2ccccc2C)ccc1Cc1cn(C2CCCC2)c2ccc(NC(=O)OC3CCCC3)cc12` [Example 25, Cyclopentyl N-{1-cyclopentyl-3-[2-methoxy-4-({[(2-methylphenyl)sulfonyl]amino}carbonyl)benzyl]-1H-indol-5-yl}carbamate]?
A: inhibition at 13 µM (CONCENTRATION 13 micromolar, read-out: PERCENT INHIBITION @): 50%; inhibition at 17 µM (CONCENTRATION 17 micromolar, read-out: PERCENT INHIBITION @): 50%

Q: How did the inhibition at 1.6 µM (CONCENTRATION 1.6 micromolar, read-out: PERCENT INHIBITION @) turn out when `Cc1cc(Cc2cn(C(c3ccccc3)c3ccccc3)c3cc(Cl)ccc23)cc(C)c1OCC(=O)O` [Example 117, 2-{4-[(1-benzhydryl-6-chloro-1H-indol-3-yl)methyl]-2,6-dimethylphenoxy}acetic acid] was run?
A: 50%

Q: Which inhibition at 12.5 µM (read-out: PERCENT INHIBITION @) does the source give for `O=C(O)C(=O)c1cn(Cc2ccc(Cc3ccccc3)cc2)c2ccc(OCc3ccccc3)cc12` [Example 69, 2-[1-(4-benzylbenzyl)-5-(benzyloxy)-1H-indol-3-yl]-2-oxoacetic acid] here?
A: 50%

Q: For `O=C(O)CCc1ccc(OCCc2c(COCc3ccc(F)cc3)n(C(c3ccccc3)c3ccccc3)c3ccc(Cl)cc23)cc1` [Example 165, 3-{4-[2-(1-benzhydryl-5-chloro-2-{[(4-fluorobenzyl)oxy]methyl}-1H-indol-3-yl)ethoxy]phenyl}propanoic acid], which inhibition at 0.8 µM (Conc 0.8 uM, read-out: % Inhibition) is on record?
A: 50%

Q: How did the inhibition at 2.6 µM (Conc 2.6 uM) turn out when `Cc1c(CCOc2ccc(C(=O)O)cc2)c2cc(Br)ccc2n1C(c1ccccc1)c1ccccc1` [Example 145, 4-[2-(1-benzhydryl-5-bromo-2-methyl-1H-indol-3-yl)ethoxy]benzoic acid] was run?
A: 50%
